{"source": "paper PMC7005646", "about": "“Overcoming resistance to anabolic SARM therapy in experimental cancer cachexia with an HDAC inhibitor” (EMBO Molecular Medicine, 2020)", "key": {"[1]": {"assay": "AR‐42 plasma and tissue pharmacokinetics, single oral dose, tumor‐free CD2F1 mice", "type": "in vivo, mouse", "settings": "for Plasma exposure: mouse", "method": "Pharmacokinetic studies were performed as previously described (Cheng et al, 2016) with the following modifications. Seven week‐old, male, tumor‐free CD2F1 mice (n = 3 per dose and time point) were administered single oral doses of 10, 20, and 50 mg/kg AR‐42 and then sacrificed 0.25, 4, and 24 h later. Fifty milligrams of gastrocnemius muscle tissue was flash‐frozen in 2 ml BeadBlaster™ 24 (MIDSCI; St. Louis, MO) tubes and stored at −80°C. Samples were homogenized for 6 cycles using a BeadBlaster 24 with analytical standards in 1 mL methanol and then centrifuged at 15,600 g (4°C) for 10 min. Supernatants were transferred to glass tubes, dried under nitrogen, and then reconstituted in 200 μl 40% methanol/0.1% formic acid. Plasma preparation and LC‐MS/MS analyses were performed as previously described (Sborov et al, 2017). Mouse plasma and muscle pharmacokinetic parameters were estimated as previously described with the exception of Cavg, which was calculated as AUCall/[dosing interval(h)]."}, "C‐26 tumor‐bearing mice": {"system": "C‐26 tumor‐bearing mice", "assay": "Confirmatory AR‐42/GTx‐024 combination study (Study 2), male C‐26 tumor‐bearing mice", "type": "in vivo, mouse", "method": "These studies were performed as previously described (Tseng et al, 2015a) with modifications. Tumors were established in the right flank of CD2F1 mice by subcutaneous injection of C‐26 cells (0.5 × 10^6 cells in 0.1 ml). […] TFM‐4AS‐1 (a potent experimental SARM), DHT, and vehicles were administered by subcutaneous injection.\nThis confirmatory study was performed exactly as Study 1 with expanded animal numbers. Tumor‐free control groups were maintained at 6 animals each, whereas 10 animals were included in each of the tumor‐bearing groups. […] Grip strength was measured on study days 0 (baseline) and 16. Due to rapid model progression, this study was terminated on day 17 after only 12 days of treatment.\nForelimb grip strength was measured using Bio‐GS3 Grip Strength Test Meter (Forceleader DBA Bioseb, Pinellas Park, FL). Each mouse was held by the base of its tail and lowered over the apparatus until its forepaws grasped the metal pull bar. The mouse was then gently pulled horizontally in a straight line away from the grip strength meter until the mouse released the bar. The force applied to the bar at the moment of release was recorded as the peak force. Five measurements were taken from each mouse, the average of which was designated as the mouse's grip strength."}, "LLC tumor‐bearing mice": {"system": "LLC tumor‐bearing mice", "assay": "AR‐42/GTx‐024 combination study in the LLC cachexia model (Study 5)", "type": "in vivo, mouse", "settings": "repeat of Study 5; 10 mg/kg AR‐42, 0.5 mg/kg GTx‐024, or both", "method": "This study was performed as previously described (Tseng et al, 2015a) with modifications. Tumors were established in the right hindlimb of male C57BL/6NHsd mice by intramuscular injection of LLC cells (0.5 × 10^6 cells in 0.05 ml). Similar to Study 3, the tumor‐free control group was maintained at six animals, whereas 12 animals were included in each of the tumor‐bearing groups. […] Grip strength, body weight, and food consumption were measured, and tissues were collected as in the previous C‐26 studies."}, "[2]": {"system": "atrogin‐1, MuRF‐1, CEBPδ expression", "assay": "qRT–PCR of atrophy‐related genes in gastrocnemius, Study 1", "type": "in vivo, mouse", "settings": "GTx‐024 15 mg/kg, AR‐42 10 mg/kg, or both", "method": "To generate muscle tissue RNA, 15 mg of gastrocnemius muscle tissue was lysed in 10 volumes of lysis buffer per tissue mass in prefilled 2.0‐ml tubes with 3.0 mm zirconium beads (MIDSCI; St. Louis, MO). Tubes were loaded into BeadBlaster™ 24 (MIDSCI; St. Louis, MO) and […] for five cycles of 5 s with a 30‐s pause between cycles. Lysate was collected, and RNA was isolated using the mirVana™ miRNA Isolation Kit, with phenol (Thermo Fisher; Waltham, MA). Samples were treated with DNA‐free DNA Removal Kit to eliminate any DNA contamination (Invitrogen, Carlsbad, CA). Total RNA (0.5 μg) was reverse‐transcribed using high‐capacity cDNA reverse transcription kit (Applied Biosystems, Foster City, CA) for 10 min at 25°C, 120 min at 37°C, and 5 min at 85°C (T100™ Thermal Cycler, Bio‐Rad). Real‐time qPCR was performed on the QuantStudio 7 system (Applied Biosystems, Foster City, CA) using the powerup SYBR Green Master Mix (Applied Biosystems, Foster City, CA). Cycling was performed using the QuantStudio 7 real‐time PCR software—2 min at 50°C and 10 min at 95°C—followed by 40 cycles of 15 s at 95°C and 1 min at 60°C. […] As transformed expression data are not normally distributed, statistical differences between treatment groups were determined by one‐way ANOVA followed by Dunnett's test on raw delta C t values."}, "class I HDACs": {"system": "class I HDACs", "assay": "In vitro HDAC inhibition assay, class I isoforms", "type": "biochemical, human", "settings": "1 μM AR‐42; range over isoforms", "method": "(§1) HDAC activity was measured by a commercial vendor using human recombinant HDAC enzymes and fluorogenic HDAC substrates (Eurofins Cerep SA, Celle L'Evescault, France). Substrate concentrations ranged from 20 to 400 μM, and incubation conditions ranged from 10 to 90 min (RT or 37°C), depending on isoform. Results are expressed as percent inhibition of control specific activity in the presence of 1 μM AR‐42."}, "IIb HDACs": {"system": "IIb HDACs", "assay": "In vitro HDAC inhibition assay, class IIb isoforms", "type": "biochemical, human", "settings": "1 μM AR‐42; range over isoforms", "method": "as §1"}, "pSTAT3 in C‐26 tumors": {"system": "pSTAT3 in C‐26 tumors", "assay": "Phospho‐STAT3/STAT3 ELISA in C‐26 tumor tissues, Study 2", "type": "in vivo, mouse", "settings": "Study 2, 10 mg/kg", "method": "Expression of phospho‐STAT3 and total STAT3 in C‐26 tumor tissues was measured using commercial sandwich ELISA kits according to the manufacturer's instructions (PathScan® Phospho‐Stat3, #7300, and Total Stat3, #7305, Cell Signaling Technology, Danvers, MA)."}, "[3]": {"settings": "Study 2, AR‐42 10 mg/kg alone or with GTx‐024 15 mg/kg"}}}
{"smiles": "CC(C)[C@H](C(=O)Nc1ccc(C(=O)NO)cc1)c1ccccc1", "note": "[AR‐42]", "values": [{"measurement": "AUCall", "setting": "[1]; 10 mg/kg oral, Muscle", "value": "11,076.7 nM*h"}, {"measurement": "Cavg", "setting": "[1]; 10 mg/kg oral, Muscle", "value": 461.5, "unit": "nM"}, {"measurement": "Cmax", "setting": "[1]; 10 mg/kg oral, Muscle", "value": 1.11, "unit": "µM"}, {"measurement": "AUCall", "setting": "[1]; 10 mg/kg oral, Plasma", "value": "10,931.6 nM*h"}, {"measurement": "Cmax", "setting": "[1]; 10 mg/kg oral, Plasma", "value": 1.5, "unit": "µM"}, {"measurement": "Cavg", "setting": "[1]; 10 mg/kg oral, Plasma, AUCall/dosing interval", "value": 455.5, "unit": "nM"}, {"measurement": "gastrocnemius muscle concentration", "setting": "[1]; 10 mg/kg oral, remained above for 4 h", "value": "above 700 nM"}, {"measurement": "AUCall", "setting": "[1]; 20 mg/kg oral, Muscle", "value": "36,504.2 nM*h"}, {"measurement": "Cavg", "setting": "[1]; 20 mg/kg oral, Muscle", "value": "1,521.0 nM"}, {"measurement": "Cmax", "setting": "[1]; 20 mg/kg oral, Muscle", "value": 3.66, "unit": "µM"}, {"measurement": "AUCall", "setting": "[1]; 20 mg/kg oral, Plasma", "value": "34,369.3 nM*h"}, {"measurement": "Cavg", "setting": "[1]; 20 mg/kg oral, Plasma", "value": "1,432.1 nM"}, {"measurement": "Cmax", "setting": "[1]; 20 mg/kg oral, Plasma", "value": 3.86, "unit": "µM"}, {"measurement": "AUCall", "setting": "[1]; 50 mg/kg oral, Muscle", "value": "72,624.7 nM*h"}, {"measurement": "Cavg", "setting": "[1]; 50 mg/kg oral, Muscle", "value": "3,026.2 nM"}, {"measurement": "Cmax", "setting": "[1]; 50 mg/kg oral, Muscle", "value": 6.37, "unit": "µM"}, {"measurement": "AUCall", "setting": "[1]; 50 mg/kg oral, Plasma", "value": "74,307.3 nM*h"}, {"measurement": "Cavg", "setting": "[1]; 50 mg/kg oral, Plasma", "value": "3,096.1 nM"}, {"measurement": "Cmax", "setting": "[1]; 50 mg/kg oral, Plasma", "value": 7.93, "unit": "µM"}, {"measurement": "mouse plasma exposure at 50 mg/kg over well‐tolerated human exposure", "setting": "[1]; 74.3 vs 8.5 μM*h", "value": 8.7, "unit": "fold"}, {"measurement": "Plasma exposure", "setting": "[1]; single oral dose 10 mg/kg", "value": 10.9, "unit": "µM·h"}, {"measurement": "Plasma exposure", "setting": "[1]; single oral dose 50 mg/kg", "value": 74.3, "unit": "µM·h"}, {"measurement": "effect on adipose tissue (epididymal fat pad)", "setting": "C‐26 tumor‐bearing mice; Study 2, 10 mg/kg", "value": "no impact on adipose tissue"}, {"measurement": "forelimb grip strength over vehicle‐treated tumor‐bearing controls", "setting": "C‐26 tumor‐bearing mice; [3]", "value": "improved grip strength"}, {"measurement": "gastrocnemius and quadriceps mass relative to GTx‐024 monotherapy", "setting": "C‐26 tumor‐bearing mice; [3]", "value": "significantly improved gastrocnemius and quadriceps mass"}, {"measurement": "response of body weight and skeletal muscle mass loss", "setting": "LLC tumor‐bearing mice", "value": "did not respond"}, {"measurement": "atrogin‐1, MuRF‐1, CEBPδ expression in gastrocnemius relative to tumor‐bearing controls", "setting": "[2]", "value": "significantly reduced"}, {"measurement": "inhibition of class I HDACs", "setting": "class I HDACs", "value": "72–95%"}, {"measurement": "inhibition of class IIb HDACs", "setting": "IIb HDACs", "value": "86–100%"}, {"measurement": "pSTAT3 signaling within the C‐26 tumors", "setting": "pSTAT3 in C‐26 tumors", "value": "did not significantly suppress"}]}
